# Assay results published in PubChem BioAssay AID248 (DTP/NCI, 2004).
# Toxic doses and inconclusive results are not listed. Square brackets hold non-standard residues; d marks the D form. Peptide text beside a SMILES is read from it. * marks the point of attachment. Arg(NO2) = N=C(NCCC[CH](N)C(=O)O)N[N+](=O)[O-]; Cbz = O=C(OCc1ccccc1)*
# System: L1210 leukemia ip in BDF1 mice, survival T/C
# Assay: NCI In Vivo Anticancer Drug Screen. Data for tumor model L1210 Leukemia (intraperitoneal) in B6D2F1 (BDF1) mice
# Conditions: endpoint: mean survival time, higher = longer survival
# Summary of the method: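 Read-out is survival time, reported as the treated-group measurement over the vehicle-control measurement.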
# [1] = dose: 100.0 mg/kg/injection, schedule: Q01DX009 (ip), vehicle: saline
# [2] = dose: 100.0 mg/kg/injection, schedule: Q04DX002 (ip), vehicle: Klucel (hydroxypropylcellulose) (HPC)
# [3] = dose: 200.0 mg/kg/injection, schedule: Q04DX002 (ip), vehicle: Klucel (hydroxypropylcellulose) (HPC)
# [4] = dose: 400.0 mg/kg/injection, schedule: Q04DX002 (ip), vehicle: Klucel (hydroxypropylcellulose) (HPC)
# [5] = dose: 100.0 mg/kg/injection, schedule: Q01DX001 (ip), vehicle: saline
# [6] = dose: 200.0 mg/kg/injection, schedule: Q01DX001 (ip), vehicle: saline
# [7] = dose: 400.0 mg/kg/injection, schedule: Q01DX001 (ip), vehicle: saline
# [8] = dose: 100.0 mg/kg/injection, schedule: Q01DX001 (ip), vehicle: Klucel (hydroxypropylcellulose) (HPC)
# [9] = dose: 200.0 mg/kg/injection, schedule: Q01DX001 (ip), vehicle: Klucel (hydroxypropylcellulose) (HPC)
smiles,measurement,setting,value
c1ccc(C(N2CCCCC2)N2CCCCC2)cc1,T/C,"dose: 100.0 mg/kg/injection, schedule: Q04DX003 (ip), vehicle: Klucel (hydroxypropylcellulose) (HPC)",106 % of control
same,T/C,"dose: 200.0 mg/kg/injection, schedule: Q04DX003 (ip), vehicle: Klucel (hydroxypropylcellulose) (HPC)",103 % of control
O=C(O)c1c(Cl)c([N+](=O)[O-])cc([N+](=O)[O-])c1Cl,T/C,"dose: 50.0 mg/kg/injection, schedule: Q01DX009 (ip), vehicle: saline",92 % of control
same,T/C,[1],92 % of control
same,T/C,"dose: 100.0 mg/kg/injection, schedule: Q04DX003 (ip), vehicle: saline",103 % of control
same,T/C,"dose: 200.0 mg/kg/injection, schedule: Q01DX009 (ip), vehicle: saline",92 % of control
same,T/C,"dose: 200.0 mg/kg/injection, schedule: Q04DX003 (ip), vehicle: saline",99 % of control
C=C(C)CCCC(C)CC#N (stereo unspecified),T/C,"dose: 100.0 mg/kg/injection, schedule: Q01DX001 (ip), vehicle: carboxymethylcellulose (CMC)",117 % of control
same,T/C,"dose: 200.0 mg/kg/injection, schedule: Q01DX001 (ip), vehicle: carboxymethylcellulose (CMC)",100 % of control
same,T/C,"dose: 400.0 mg/kg/injection, schedule: Q01DX001 (ip), vehicle: carboxymethylcellulose (CMC)",96 % of control
CC12CCCCC1(O)CC(=O)CC2 (stereo unspecified),T/C,[2],101 % of control
same,T/C,[3],99 % of control
same,T/C,[4],108 % of control
C[n+]1csc(=S)[nH]1,T/C,[1],98 % of control
NS(=O)(=O)c1ccc(N=Nc2nc3[nH]cnc(=S)c3[nH]2)cc1,T/C,"dose: 8.0 mg/kg/injection, schedule: Q01DX009 (ip), vehicle: saline",116 % of control
same,T/C,"dose: 15.0 mg/kg/injection, schedule: Q01DX009 (ip), vehicle: saline",121 % of control
same,T/C,"dose: 62.5 mg/kg/injection, schedule: Q01DX015 (ip), vehicle: saline",115 % of control
same,T/C,"dose: 125.0 mg/kg/injection, schedule: Q01DX015 (ip), vehicle: saline",121 % of control
same,T/C,"dose: 250.0 mg/kg/injection, schedule: Q01DX009 (ip), vehicle: saline",104 % of control
same,T/C,"dose: 250.0 mg/kg/injection, schedule: Q01DX015 (ip), vehicle: saline",153 % of control
O=C1CCCCCCCCCCCCCCCO1,T/C,[2],90 % of control
same,T/C,[3],93 % of control
same,T/C,[4],93 % of control
C=C(Cl)c1c(C)cc(C)c(CC#N)c1C,T/C,"dose: 12.5 mg/kg/injection, schedule: Q01DX009 (ip), vehicle: DMSO",92 % of control
same,T/C,"dose: 12.5 mg/kg/injection, schedule: Q04DX003 (ip), vehicle: DMSO",87 % of control
same,T/C,"dose: 25.0 mg/kg/injection, schedule: Q01DX009 (ip), vehicle: DMSO",92 % of control
same,T/C,"dose: 25.0 mg/kg/injection, schedule: Q04DX003 (ip), vehicle: DMSO",93 % of control
same,T/C,"dose: 50.0 mg/kg/injection, schedule: Q04DX003 (ip), vehicle: DMSO",93 % of control
same,T/C,"dose: 200.0 mg/kg/injection, schedule: Q04DX003 (ip), vehicle: DMSO",87 % of control
COC(=O)C(CCCN=C(N)N[N+](=O)[O-])NC(=O)C(Cc1ccccc1)NC(=O)C1CCCN1C(=O)OCc1ccccc1 (stereo not drawn) (Cbz-Pro-Phe-[Arg(NO2)]-OMe; configuration not given here),T/C,[5],90 % of control
same,T/C,[6],96 % of control
same,T/C,[7],92 % of control
CN(C)c1ccc2c(c1)N=[N+]([O-])c1cc(N(C)C)ccc1C2,T/C,[8],97 % of control
same,T/C,[9],97 % of control
same,T/C,"dose: 400.0 mg/kg/injection, schedule: Q01DX001 (ip), vehicle: Klucel (hydroxypropylcellulose) (HPC)",89 % of control
O=C(O)c1cccc(C#Cc2ccccc2)c1,T/C,[8],97 % of control
same,T/C,[9],103 % of control
Cc1ccc(C#N)s1,T/C,"dose: 3.12 mg/kg/injection, schedule: Q01DX009 (ip), vehicle: other",98 % of control
same,T/C,"dose: 6.25 mg/kg/injection, schedule: Q01DX009 (ip), vehicle: other",104 % of control
same,T/C,"dose: 12.5 mg/kg/injection, schedule: Q01DX009 (ip), vehicle: other",98 % of control
same,T/C,"dose: 16.0 mg/kg/injection, schedule: Q04DX003 (ip), vehicle: saline",102 % of control
same,T/C,"dose: 25.0 mg/kg/injection, schedule: Q01DX009 (ip), vehicle: other",106 % of control
same,T/C,"dose: 25.0 mg/kg/injection, schedule: Q04DX003 (ip), vehicle: saline",117 % of control
CC(=O)OCC1OC(OC(C)=O)C(NS(=O)(=O)c2ccc(C)cc2)C(OC(C)=O)C1OC(C)=O (stereo unspecified),T/C,[5],102 % of control
same,T/C,[6],104 % of control
same,T/C,[7],102 % of control
